Laboratory results taken from publication PMC9658984, “Acetylation Enhances the Anticancer Activity and Oral Bioavailability of 5-Demethyltangeretin” (International Journal of Molecular Sciences, 2022).
pIC50: −log10 of the molar value. Marks after values point to notes of the source that are not given here.

Legend:
[1] = test system: PC-3 human prostate cancer cells; assay: MTT cell viability assay; format: cell-based; settings: PC-3 cells, 48 h; for pIC50: Homo sapiens, MTT
Experimental: PC-3 human prostate cancer cell line was obtained from the Bioresource Collection and Research Center (Hsinchu, Taiwan) and maintained in RPMI medium with 10% FBS and 1% penicillin-streptomycin (PS). The cells were incubated in a 5% CO2 humidified atmosphere at 37 °C. TAN, 5-DTAN, and 5-ATAN were dissolved in DMSO to prepare a 20 mM sample stock, and the final ratio of the DMSO in the treatment medium was 0.1%.
(§1) PC-3 cells were seeded in 96-well plates at a density of 2.5 × 10^3 cells/well and allowed to attach for 24 h. The medium was changed to serum-free RPMI supplemented with 0–20 μM TAN, 5-DTAN, or 5-ATAN, and then incubated for an additional 48 h. The cell viability was determined by the MTT assay and represented as a percentage of the growth of the DMSO-treated cells. FACScan flow cytometer (Becton Dickinson, San Jose, CA, USA) was used to analyze the cell cycle distribution as previously mentioned. Briefly, PC-3 cells treated with various concentrations of 5-DTAN or 5-ATAN for 48 h were trypsinized and gently fixed in 70% ice-cold ethanol and stored at −20 °C for at least 24 h. Then, the cells were washed with cold phosphate-buffered saline (PBS), followed by incubation with 40 μg/mL PI, 0.1 mg/mL RNase A, and 0.1% TritonX-100 in the dark for 30 min at room temperature. Subsequently, the cell cycle distribution of the PI-stained cells was analyzed by a FACScan flow cytometer, and the results were analyzed and calculated using ModFit LT Ver. 3.0 software. The proportion of the sub-G1 phase was quantitated and represented as the apoptotic ratio. Furthermore, a QIAamp DNA mini kit was used to extract DNA from the PC-3 cells treated with 5-DTAN or 5-ATAN for 48 h. Then, the extracted DNA was loaded on a 2% agarose gel containing HealthView^TM Nucleic Acid Stain (Genomics, New Taipei, Taiwan) for electrophoresis at 50 V. The gel was visualized under UV light, and the DNA fragmentation pattern was photographed.

PC-3 cells [2] = assay: Cell cycle distribution / sub-G1 apoptotic ratio by PI flow cytometry; format: cell-based, human; settings: 48 h
Experimental: as §1

PC-3 cells [3] = assay: DNA fragmentation (agarose gel electrophoresis); format: cell-based, human; settings: 48 h
Experimental: as §1, with “Then, the extracted DNA was loaded on a 2% agarose gel containing HealthView^TM Nucleic Acid Stain (Genomics, New Taipei, Taiwan) for electrophoresis at 50 V. The gel was visualized under UV light, and the DNA fragmentation pattern was photographed.” left out

caspase-3 = assay: Caspase-3 activity by flow cytometry (CaspGLOW staining); format: cell-based, human; settings: PC-3 cells, 48 h
Experimental: (§2) The PC-3 cells were treated with the indicated concentration of 5-DTAN or 5-ATAN for 48 h, and then cells were collected and stained by a CaspGLOW^TM Fluorescein Active Caspase-3 Staining Kit (Thermo Fisher Scientific, MA, USA) or 3,3′-dihexyloxacarbocyanine iodide (DiOC6, Merck Millipore, Burlington, MA, USA) for caspase-3 activity and mitochondria membrane potential analysis, respectively. The percentages of caspase-3-activated or DiOC6-positive cells were measured using a flow cytometer and calculated by the CellQuest Pro software.

PC-3 cells [4] = assay: Mitochondrial membrane potential (DiOC6, flow cytometry); format: cell-based, human; settings: 2.5-10 µM, 48 h
Experimental: as §2

PC-3 cells [5] = assay: Colony formation assay; format: cell-based, human; settings: PC-3 cells, 1.25, 2.5 and 5 µM, 14 days
Experimental: (§3) The colony formation assay was conducted using a procedure modified from the previous report. PC-3 cells were seeded in 6-well plates at a density of 500 cells/well and allowed to attach for 24 h. Subsequently, the cells were treated with various concentrations of 5-ATAN. After 14 days of incubation, the colonies formed were observed by crystal violet staining and photographed. The wound healing assay was performed to assess the effect of 5-ATAN on the migration ability of PC-3 cells. Cells were seeded into a 6 cm dish at a cell density of 1 × 10^6 cells/well. After being cultured at 37 °C for 24 h, a 200 µL yellow pipette tip was used to scrape a gap in the middle of the dish. After washing twice with 1X PBS solution, the medium was replaced with fresh, serum-free medium containing different concentrations of 5-ATAN and incubated for 24 h. Then, the images were taken with an inverted phase contrast microscope at a magnification of 100×, and the Image J software was used for the measurement of the wound width. The percentage of cell migration (% of control) was calculated by measuring the movement of the cells into the scratch area after 24 h of treatment with DMSO or 5-ATAN.

PC-3 cells [6] = assay: Wound healing cell migration assay; format: cell-based, human; settings: 24 h
Experimental: as §3

Bcl-xL = assay: Western blot protein expression, Bcl-xL; format: cell-based, human; settings: PC-3 cells, 10 µM
Experimental: (§4) Western blot was performed to analyze the protein expression in the PC-3 Cells. The cells were exposed to indicated concentrations of 5-ATAN for various time periods at 37 °C. Then, they were washed with cold PBS and harvested, and a Western blot was conducted as previously described.

Bax = assay: Western blot protein expression, Bax; format: cell-based, human; settings: PC-3 cells, 10 µM
Experimental: as §4

Cdc25c = assay: Western blot protein expression, Cdc25c; format: cell-based, human; settings: PC-3 cells, 10 µM, time-dependent
Experimental: as §4

Cyclin B1 = assay: Western blot protein expression, Cyclin B1; format: cell-based, human; settings: PC-3 cells, 10 µM, time-dependent
Experimental: as §4

Cdc2 = assay: Western blot protein expression, Cdc2; format: cell-based, human; settings: PC-3 cells, 10 µM, only after 48 h
Experimental: as §4

MMP-9 = assay: Western blot protein expression, MMP-9; format: cell-based, human; settings: PC-3 cells, 5 µM, effect enhanced with treatment time
Experimental: as §4

MMP-2 = assay: Western blot protein expression, MMP-2; format: cell-based, human; settings: PC-3 cells, 5 µM, only at 48 h
Experimental: as §4

PC-3 cell xenografts = assay: Tumor growth inhibition in PC-3 cell xenograft model; format: in vivo, nude mice; settings: for Tumor growth inhibitory rate, estimated by the means of tumor weight / Tumor weight at the end of the experiment: 10 mg/kg daily oral, nude mice; for Tumor weight at the end of the experiment: day 24, control 2.47 ± 0.43 g; for Effect on tumor volume: 10 mg/kg daily, PC-3 cell xenografts in nude mice
Text: Male nu/nu mice were obtained from BioLasco Taiwan (Taipei, Taiwan) and maintained on a standard laboratory chow (Purina rodent chow 5001, Purina, St. Louis, MO, USA). At 5 weeks of age, nude mice were used for the xenograft experiment. For the oral bioavailability study, 5-week-old male […] mice were purchased from the National Laboratory Animal Center (Taipei, Taiwan), and the experiment was started after 1 week of acclimation. All mice were housed in an air-conditioned room (temperature: 22 ± 2 °C; humidity: 50–60%) under standard conditions (12 h light/12 h dark cycle). All animal studies were approved by the National Pingtung University of Science and Technology, Institutional Animal Care and Use Committee with protocol numbers NPUST-102-015 and NPUST-105-045.
The 5-week-old nude mice were divided into three groups (n = 6) and administered with the vehicle, 5-DTAN (10 mg/kg), and 5-ATAN (10 mg/kg), respectively. Tumors were established by subcutaneous injections of PC-3 cells (1 × 10^6 cells) into the right flank side of nude mice. The tumor size was measured twice a week with digital calipers, and the tumor volume (V) was calculated by the following formula: V = length × width^2 × 0.5. On day 24, the mice were sacrificed by CO2, and the tumors were harvested and weighed.

[7] = Tissue distribution of 5-DTAN after 7 days oral dosing; format: in vivo; settings: 50 mg/kg i.g., 7 consecutive days, C57BL/6J mice; except kidney and lung
Experimental: Basically, esterase in the cytosol and plasma rapidly converts 5-ATAN absorbed into cells or into the blood circulation to 5-DTAN by deacetylation. The 5-DTAN in 5-DTAN-treated and 5-ATAN-treated samples can be determined by the HPLC-electrochemical detection (ECD) method. PC-3 cells were seeded in 10 cm dishes (1 × 10^6 cells) and allowed to attach for 24 h. Subsequently, cells were treated with various concentrations of 5-DTAN or 5-ATAN for 12 h, or with 15 µM of 5-DTAN or 5-ATAN for different time periods. Then, the cells were washed with cold PBS, collected, and centrifuged at 300× g for 5 min to remove the supernatant. […] The cytosolic levels of 5-DTAN in the resulting supernatant were analyzed by HPLC with an Ascentis RP-Amide column (L × I.D. 15 cm × 4.6 mm, 3 μm) (Merck KGaA, Darmstadt, Germany) as previously described. […] The samples were reconstituted in methanol and the levels of 5-DTAN were analyzed by HPLC-ECD. Pharmacokinetic parameters, including maximum concentration (Cmax), maximum time (Tmax), half-life (T1/2), and area under the curve (AUC), were calculated and obtained by the Thermo kinetica 5.0 software (Thermo Fisher Scientific, Waltham, MA, USA). […] The supernatant was obtained by centrifuging at 15,130× g for 15 min at 4 °C and then extracted with an equal volume of ethyl acetate and analyzed using the methods described above.

CL1-5 cell xenograft = test system: CL1-5 cell xenograft; parameters: method as in PMID 26569090; settings: 20 mg/kg i.p., CL1-5 cell xenograft mice; cited from earlier work
[8] = parameters: method as in doi:10.1016/j.jff.2008.09.003; settings: cited from earlier work

Row | Compound | pIC50 [1] | Cell Cycle Distribution (%) G0/G1 (PC-3 cells [2]; 2.5 μM) | Cell Cycle Distribution (%) G2/M (PC-3 cells [2]; 2.5 μM) | Cell Cycle Distribution (%) S (PC-3 cells [2]; 2.5 μM) | Cell Cycle Distribution (%) G0/G1 (PC-3 cells [2]; 5 μM) | Cell Cycle Distribution (%) G2/M (PC-3 cells [2]; 5 μM) | Cell Cycle Distribution (%) S (PC-3 cells [2]; 5 μM) | Cell Cycle Distribution (%) G0/G1 (PC-3 cells [2]; 10 μM) | Cell Cycle Distribution (%) G2/M (PC-3 cells [2]; 10 μM) | Cell Cycle Distribution (%) S (PC-3 cells [2]; 10 μM) | Concentration at which DNA ladders were observed (PC-3 cells [3]) | Tumor growth inhibitory rate, estimated by the means of tumor weight (PC-3 cell xenografts) [%] | Tumor weight at the end of the experiment (PC-3 cell xenografts) [g] | Effect on tumor volume (PC-3 cell xenografts) | further results
1 | COc1ccc(-c2cc(=O)c3c(OC(C)=O)c(OC)c(OC)c(OC)c3o2)cc1 [5-ATAN, 5-acetyloxy-6,7,8,4′-tetramethoxyflavone] | 5.29 | 58.5 ± 1.1 ^A % | 34.7 ± 0.8 ^C % | 6.8 ± 0.3 ^B % | 49.1 ± 0.3 ^B % | 45.7 ± 0.5 ^B % | 5.2 ± 0.3 ^C % | 44.7 ± 0.3 ^C % | 50.3 ± 1.3 ^A % | 4.6 ± 0.5 ^D % | higher than 5 μM | 61.9 | 0.94 ± 0.18 | significantly suppressed | IC50 fold lower than that of 5-DTAN [1]: 2.3 fold; IC50 fold lower than that of TAN [1]: 3.4 fold; Apoptotic cells (sub-G1) (PC-3 cells [2]; 10 μM): 22.2%; Percentage of caspase-3 activity (caspase-3; 2.5 μM): 7.2 ± 0.6%; Percentage of caspase-3 activity (caspase-3; 5 μM): 9.1 ± 1.7%; Percentage of caspase-3 activity (caspase-3; 10 μM): 18.8 ± 02.4%; Effect on mitochondrial membrane potential (PC-3 cells [4]): dose-dependent decline; Number of colonies (PC-3 cells [5]): dose-dependently decreased; Suppression of migration compared to the control (PC-3 cells [6]; 1.25 µM): 35.5%; Suppression of migration compared to the control (PC-3 cells [6]; 2.5 µM): 48.5%; Suppression of migration compared to the control (PC-3 cells [6]; 5 µM): 73.6%; Expression of Bcl-xL (Bcl-xL): marked decrease; Expression of Bax (Bax): slight increase; Expression of Cdc25c (Cdc25c): dramatically down-regulated; Expression of Cyclin B1 (Cyclin B1): dramatically down-regulated; Expression of Cdc-2 (Cdc2): reduced; Expression of MMP-9 (MMP-9): significantly inhibited; Expression of MMP-2 (MMP-2): obviously inhibited; Levels of 5-DTAN in most tissues vs 5-DTAN-treated mice [7]: significantly higher; Tumor growth inhibitory rate (CL1-5 cell xenograft): 43%
2 | COc1ccc(-c2cc(=O)c3c(O)c(OC)c(OC)c(OC)c3o2)cc1 [5-DTAN, 5-hydroxy-6,7,8,4′-tetramethoxyflavone, reference compound] | 4.93 | 60.2 ± 2.8 ^b % | 31.6 ± 2.7 ^a % | 8.2 ± 0.1% | 59.9 ± 0.4 ^b % | 31.4 ± 0.5 ^a % | 8.7 ± 0.3% | 58.2 ± 2.4 ^b % | 32.6 ± 1.1 ^a % | 8.5 ± 0.9% | 20 µM | 43.7 | 1.39 ± 0.36 | significantly suppressed | Solubility in biological systems [8]: extremely poor solubility
3 | COc1ccc(-c2cc(=O)c3c(OC)c(OC)c(OC)c(OC)c3o2)cc1 [TAN, 5,6,7,8,4′-pentamethoxyflavone, reference compound] | 4.76 | – | – | – | – | – | – | – | – | – | – | – | – | – | –
